{
  "source": "patent US7776827B2",
  "about": "(ImmuneRegen Biosciences, Inc., priority 2007, dated 2010)",
  "format_in_all_cases": "cell-based",
  "key": {"[1]": {"tested_on": "seven human-derived hematopoietic cell populations", "assay": "CFC assay, three donors, overall statements (Example 5)", "conditions": "highest doses (1 nM)", "experimental": "Compound was dissolved in 1 ml of Iscove's Modified Dulbecco's Medium (IMDM) and a serial dose response was prepared in single log doses so that the final dose in culture ranged from 1 nanoMolar (nM) to 1×10^−16 M. All working dilutions were performed in IMDM. Cell cultures from each donor were started at different times and a fresh solution of HOMSPERA® was prepared for each individual experiment.\nStarting with human bone marrow aspirate, the mononuclear cell (MNC) fraction from each aspirate was separated from whole bone marrow using Ficoll-Paque density gradient centrifugation.\nThe colony-forming cell (CFC) assay was performed using optimal growth factor/cytokine concentrations. The reagents and conditions were similar to those used in Example 4, except that no ATP measurements were performed. The MNC fraction from each bone marrow donor was dissolved in IMDM and cultured at a concentration of 5,000 cells/well in a Culture Master Mix (HemoGenix, Inc., Colorado Springs, Colo.). […]\nThe mean, standard deviation and percent coefficient of variation was calculated for all groups, transposed and plotted as a function of donor. The percent from control values were calculated and also plotted as a function of donor. […]"}, "[2]": {"tested_on": "human bone marrow-derived hematopoietic cell populations", "assay": "CFC differentiation and ATP proliferation assays, overall statements (Example 4)", "experimental": "The compound was dissolved in 1 ml of Iscove's Modified Dulbecco's Medium (IMDM) and a serial dose response prepared in single log doses so that the final dose in culture ranged from 1 nM to 1×10^−16 M. All working dilutions were performed in IMDM.\nStarting with human bone marrow aspirate, the mononuclear cell (MNC) fraction was separated from the whole bone marrow using Ficoll-Paque density gradient centrifugation. […] The cell concentration was adjusted so that the final cell concentration in culture was 10,000 cells/well.\nHuman bone marrow MNC was dissolved in IMDM and cultured at a concentration of 10,000 cell/well in a CAMEO™-96 Master Mix (HemoGenix, Inc., Colorado Springs, Colo.). […]\nPrior to processing all 96-well plates, the total colony counts/well were manually enumerated by microscopy. The mean, standard deviation and percent coefficient of variation was calculated for all groups, transposed and plotted. The intracellular ATP (iATP) concentration was measured after manual enumeration. The output of the luminometer is non-standardized Relative Luminescence Units (RLU). […] This allowed the RLU values to be automatically calculated into standardized ATP (μM) units. For both the RLU and ATP values derived from each well, the luminometer software calculated the mean, standard deviation and percent coefficient of variation."}, "[3]": {"tested_on": "BFU-E", "assay": "Colony forming unit (CFU) assay, human bone marrow cells (Example 6)", "conditions": "FIG. 1; control = zero level", "text": "(§1) As stem cells differentiate in response to growth factors, they form a colony of cells with distinct morphologies that can be visualized using a microscope. This study examined the formation of three different progenitor cell populations, erythrocytes, platelets and granulocytes/macrophages.\n(§2) Bone marrow aspirates were obtained from three healthy donors between 18 and 35 years of age following appropriate guidelines and protocols. Bone marrow mononuclear cells were isolated using a Ficoll-Hypaque density gradient, separating red blood cells from the others. Cells from each donor were processed independently and used for setting up individual experiments to assess the effects, if any, of donor variability.\n(§3) Cells (1×10^5) were plated in duplicate onto 35 mm tissue culture plates for each condition tested and set up as described in Rameshwar et al. 1993, Blood. 81:2, 391-398. Erythroid and granulocyte/macrophage cultures were plated using methylcellulose and megakaryocyte cultures (platelet precursors) used a collagen-based support (StemCell Technologies, Vancouver, Canada, catalogue #04973). […] CP 99,994 (Pfizer) was used as a neurokinin-1 receptor antagonist and SR 48968 (Sanofi) was used as a neurokinin-2 receptor antagonist. […]"}, "[4]": {"tested_on": "CFU-E", "assay": "Colony forming unit (CFU) assay, human bone marrow cells (Example 6)", "conditions": "FIG. 2; control = zero level", "text": "as §1, §2, §3"}, "[5]": {"tested_on": "CFU-Mk (platelet precursors)", "assay": "Colony forming unit (CFU) assay, human bone marrow cells (Example 6)", "conditions": "in the presence of substance P", "text": "as §1, §2\nCells (1×10^5) were plated in duplicate onto 35 mm tissue culture plates for each condition tested and set up as described in Rameshwar et al. 1993, Blood. 81:2, 391-398. Erythroid and granulocyte/macrophage cultures were plated using methylcellulose and megakaryocyte cultures (platelet precursors) used a collagen-based support (StemCell Technologies, Vancouver, Canada, catalogue #04973). […] CP 99,994 (Pfizer) was used as a neurokinin-1 receptor antagonist and SR 48968 (Sanofi) was used as a neurokinin-2 receptor antagonist.\nCultures were set up with limited cytokines and growth factors which would promote differentiation of one progenitor per plate. […]"}},
  "data": [
    {"molecule": "CC(C)C[C@H](NC(=O)CN(C)C(=O)[C@H](Cc1ccccc1)NC(=O)[C@H](Cc1ccccc1)NC(=O)[C@H](CCC(N)=O)NC(=O)[C@H](CCC(N)=O)NC(=O)[C@@H]1CCCN1C(=O)[C@H](CCCCN)NC(=O)[C@@H]1CCCN1C(=O)[C@@H](N)CCCNC(=N)N)C(=O)N[C@@H](CCS(C)(=O)=O)C(N)=O", "note": "[HOMSPERA®]", "values": [
      {"measurement": "toxicity", "setting": "[1]", "value": "no apparent toxicity at the highest doses"},
      {"measurement": "toxicity", "setting": "[2]; B-CFC and T-CFC, levels tested", "value": "do not demonstrate toxicity at the levels tested"},
      {"measurement": "cytotoxicity", "setting": "[2]; most of populations, 14 days, 1 nM to 1×10^−16 M", "value": "apparent absence of distinct cytotoxicity"}
    ]},
    {"molecule": "Arg Pro Lys Pro Gln Gln Phe Phe Gly Leu Met [substance P]", "values": [
      {"measurement": "BFU-E colony formation, increase from control values", "setting": "[3]", "value": "~60", "unit": "%"},
      {"measurement": "CFU-E colony formation, enhancement from control values", "setting": "[4]", "value": "about 70%"}
    ]},
    {"molecule": "CC(=O)NC1(c2ccccc2)CCN(CC[C@H](CN(C)C(=O)c2ccccc2)c2ccc(Cl)c(Cl)c2)CC1", "note": "[SR48968]", "values": [
      {"measurement": "effect of receptor antagonist on substance P stimulation of platelet colony formation", "setting": "[5]", "value": "showed no effect on substance P activity in enhancing platelet colony formation"}
    ]},
    {"molecule": "COc1ccccc1CN[C@H]1CCCN[C@H]1c1ccccc1", "note": "[CP-99,994]", "values": [
      {"measurement": "effect of receptor antagonist on substance P stimulation of platelet colony formation", "setting": "[5]", "value": "blocks the stimulatory activity of substance P"}
    ]}
  ]
}
